According to PMC6278960 (Haematologica, 2018):

Target: protein disulfide isomerase (PDI) (Homo sapiens, UniProt P07237)
Test: turbidimetric insulin disulfide reduction assay with recombinant human PDI
Assay type: biochemical

protein disulfide isomerase (PDI), sequence (P07237 18-508): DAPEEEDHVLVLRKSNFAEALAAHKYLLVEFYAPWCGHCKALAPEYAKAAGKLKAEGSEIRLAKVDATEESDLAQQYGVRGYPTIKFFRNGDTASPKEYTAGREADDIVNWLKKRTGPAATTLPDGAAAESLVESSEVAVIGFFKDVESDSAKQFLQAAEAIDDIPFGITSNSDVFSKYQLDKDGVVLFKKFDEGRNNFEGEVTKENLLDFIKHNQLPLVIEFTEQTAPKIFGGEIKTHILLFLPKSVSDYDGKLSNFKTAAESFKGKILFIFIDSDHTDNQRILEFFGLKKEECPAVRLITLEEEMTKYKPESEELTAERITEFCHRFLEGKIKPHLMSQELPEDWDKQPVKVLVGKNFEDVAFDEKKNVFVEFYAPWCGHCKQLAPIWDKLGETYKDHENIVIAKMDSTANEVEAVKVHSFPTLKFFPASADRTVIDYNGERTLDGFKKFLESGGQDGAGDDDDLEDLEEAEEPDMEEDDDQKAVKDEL

IC50: 9.98 µM
Substance: SK053
